Values of other authors in patent publication US20210290639A1, “IMMEDIATE RELEASE FORMULATION OF A TRIPLE COMBINATION OF ACTIVE PHARMACEUTICAL INGREDIENTS USEFUL IN THE TREATMENT OF POLYCYSTIC OVARY SYNDROME” (priority 2018, published 2021).

Conditions: low solubility and high permeability

| Compound | BCS class |
| --- | --- |
| CC(=O)S[C@@H]1CC2=CC(=O)CC[C@]2(C)[C@H]2CC[C@@]3(C)[C@@H](CC[C@@]34CCC(=O)O4)[C@H]12 [spironolactone, 7α-Acetylthio-3-oxo-17α-pregn-4-ene-21,17β-carbolactone] | Class II |
| CCc1ccc(CCOc2ccc(CC3SC(=O)NC3=O)cc2)nc1 (racemic) [pioglitazone, ((±)-5-[p-[2-(5-Ethyl-2-pyridyl)ethoxy]benzyl]-2,4-thiazolidinedione] | Class II |
